Assays:
IMP-1 = IMP-1 (Serratia marcescens, UniProt P52699); experiment: Inhibition of imipenem cleavage by purified IMP-1; format: biochemical; details: imipenem reporter substrate; 37° C.; read-out: Ki (IMP-1, IMI)
Method: Ki values of inhibition of purified class B enzymes NDM-1 and IMP-1 were determined spectrophotometrically using imipenem as reporter substrate. Purified enzymes were mixed with various concentrations of inhibitors in reaction buffer and incubated for 10 min at room temperature. Imipenem was added and substrate cleavage profiles were recorded at 294 nm every 30 seconds for 30 minutes at 37° C. These experiments further confirmed that the described compounds have the ability to inhibit carbapenemase activity of metallo-beta-lactamases.

P99 = P99 (Enterobacter cloacae, UniProt P05364); experiment: biochemical; details: nitrocefin reporter substrate; 10 min preincubation at room temperature; read-out: Ki (P99, NCF)
Chain of P99 (P05364 21-381): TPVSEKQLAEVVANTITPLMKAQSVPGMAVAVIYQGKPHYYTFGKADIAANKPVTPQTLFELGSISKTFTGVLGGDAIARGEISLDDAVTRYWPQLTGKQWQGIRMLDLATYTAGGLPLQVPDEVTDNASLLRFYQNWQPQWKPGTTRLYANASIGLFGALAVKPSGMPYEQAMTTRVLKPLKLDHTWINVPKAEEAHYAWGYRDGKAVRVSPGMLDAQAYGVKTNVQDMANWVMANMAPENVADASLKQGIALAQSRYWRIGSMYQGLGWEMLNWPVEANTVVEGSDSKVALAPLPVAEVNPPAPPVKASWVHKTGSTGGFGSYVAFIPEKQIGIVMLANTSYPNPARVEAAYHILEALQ
Method: (§1) Ki values of inhibition of purified class A, C and D enzymes were determined spectrophotometrically using nitrocefin as reporter substrate. Purified enzymes were mixed with various concentrations of inhibitors in reaction buffer and incubated for 10 min at room temperature. Nitrocefin was added and substrate cleavage profiles were recorded at 490 nm every 10 sec for 10 min.

Pa-AmpC = Pa-AmpC (Pseudomonas aeruginosa, UniProt P24735); experiment: biochemical; details: nitrocefin reporter substrate; 10 min preincubation at room temperature; read-out: Ki (Pa-AmpC, NCF)
Chain of Pa-AmpC (P24735 27-397): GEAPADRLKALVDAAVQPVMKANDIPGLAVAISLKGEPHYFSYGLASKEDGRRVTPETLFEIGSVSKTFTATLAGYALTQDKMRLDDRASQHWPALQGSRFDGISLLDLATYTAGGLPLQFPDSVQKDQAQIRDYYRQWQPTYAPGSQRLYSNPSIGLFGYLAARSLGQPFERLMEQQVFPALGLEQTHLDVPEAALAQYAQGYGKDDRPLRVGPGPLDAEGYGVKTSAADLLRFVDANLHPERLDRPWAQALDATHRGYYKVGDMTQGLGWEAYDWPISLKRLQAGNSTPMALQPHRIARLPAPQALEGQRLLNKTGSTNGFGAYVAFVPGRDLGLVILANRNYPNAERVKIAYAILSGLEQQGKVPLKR
Method: as §1

[1] = test system: PAM1154/KPC-2 (lacked MexAB-OprM); experiment: Biapenem potentiation (MPC64) in PAM1154/KPC-2; format: cell-based, Pseudomonas aeruginosa; design: PAM1154/KPC-2 Biapenem MPC64: unit not given here; details: BLI potency to decrease biapenem MIC 64-fold, from 32 to 0.5 μg/ml; efflux deficient strain
Method: (§2) Efflux of BLIs from Pseudomonas aeruginosa by the MexAB-OprM efflux pump was also evaluated. The plasmid expressing the gene encoding KPC-2 was introduced into two strains of P. aeruginosa, PAM1032 and PAM1154 that overexpressed or lacked MexAB-OprM, respectively. Due to expression of KPC-2 both strains became resistant to biapenem. […] Potency of BLIs to potentiate biapenem in these strains was determined. […] The ratio of MPC64 values for each BLI in PAM1032/KPC-2 (efflux proficient) and PAM1154/KPC-2 (efflux deficient) was determined to generate the Efflux Index (EI) as shown in Table 8.

[2] = test system: PAM1032/KPC-2 (overexpressed MexAB-OprM); experiment: Biapenem potentiation (MPC64) in PAM1032/KPC-2; format: cell-based, Pseudomonas aeruginosa; design: PAM1032/KPC-2 Biapenem MPC64: unit not given here; details: BLI potency to decrease biapenem MIC 64-fold, from 32 to 0.5 μg/ml; efflux proficient strain
Method: as §2

NDM-1 = NDM-1 (Klebsiella pneumoniae, UniProt C7C422); experiment: Inhibition of imipenem cleavage by purified NDM-1; format: biochemical; details: imipenem reporter substrate; 37° C.; read-out: Ki (NDM-1, IMI)
Chain of NDM-1 (C7C422 29-270, looked up, species assumed): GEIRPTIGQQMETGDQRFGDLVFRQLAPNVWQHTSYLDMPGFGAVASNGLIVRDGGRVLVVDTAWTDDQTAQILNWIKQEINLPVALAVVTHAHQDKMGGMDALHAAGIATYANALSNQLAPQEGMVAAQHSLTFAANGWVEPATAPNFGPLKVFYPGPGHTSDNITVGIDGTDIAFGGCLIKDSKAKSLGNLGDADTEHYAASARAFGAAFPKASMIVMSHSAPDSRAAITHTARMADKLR
Method: Purified enzymes were mixed with various concentrations of inhibitors in reaction buffer and incubated for 10 min at room temperature. Imipenem was added and substrate cleavage profiles were recorded at 294 nm every 30 seconds for 30 minutes at 37° C.

CTX-M-14 = CTX-M-14 (Escherichia coli, UniProt Q9L5C7); experiment: Inhibition of nitrocefin cleavage by purified CTX-M-14; format: biochemical; details: nitrocefin reporter substrate; 10 min preincubation at room temperature; read-out: Ki (CTX-M-14, NCF)
Chain of CTX-M-14 (Q9L5C7 29-291, species assumed): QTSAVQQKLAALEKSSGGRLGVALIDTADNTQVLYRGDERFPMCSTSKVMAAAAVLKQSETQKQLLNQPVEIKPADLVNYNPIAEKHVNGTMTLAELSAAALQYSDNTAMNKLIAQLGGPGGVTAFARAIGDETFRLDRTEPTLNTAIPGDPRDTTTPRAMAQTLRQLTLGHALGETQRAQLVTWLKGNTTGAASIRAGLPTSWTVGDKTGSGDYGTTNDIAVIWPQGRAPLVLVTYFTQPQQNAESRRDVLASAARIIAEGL
Method: as §1

KPC-2 = KPC-2 (Klebsiella pneumoniae, UniProt Q9F663); experiment: Inhibition of nitrocefin cleavage by purified KPC-2; format: biochemical; details: nitrocefin reporter substrate; 10 min preincubation at room temperature; read-out: Ki (KPC-2, NCF)
Chain of KPC-2 (Q9F663 25-293 limits assumed): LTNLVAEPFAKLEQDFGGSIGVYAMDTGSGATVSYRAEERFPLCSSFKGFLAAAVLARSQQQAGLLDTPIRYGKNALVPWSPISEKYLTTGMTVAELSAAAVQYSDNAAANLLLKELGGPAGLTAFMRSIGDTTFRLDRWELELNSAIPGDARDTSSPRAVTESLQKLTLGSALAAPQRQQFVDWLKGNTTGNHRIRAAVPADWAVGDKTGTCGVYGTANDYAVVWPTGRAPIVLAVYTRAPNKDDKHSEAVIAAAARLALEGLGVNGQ
Method: as §1, with “min. These experiments confirmed that the described compounds are inhibitors with a broad-spectrum of activity towards various β-lactamases.” for “min.”

VIM-1 = VIM-1 (Pseudomonas aeruginosa, UniProt A0A0F7KYQ8); experiment: Inhibition of nitrocefin cleavage by purified VIM-1; format: biochemical; details: nitrocefin reporter substrate; 10 min preincubation at room temperature; read-out: Ki (VIM-1, NCF)
OXA-48 = OXA-48 (Klebsiella pneumoniae, UniProt Q6XEC0); experiment: Inhibition of nitrocefin cleavage by purified OXA-48; format: biochemical; details: nitrocefin reporter substrate; 10 min preincubation at room temperature; read-out: Ki (OXA-48, NCF)
Chain of OXA-48 (Q6XEC0 23-265, looked up): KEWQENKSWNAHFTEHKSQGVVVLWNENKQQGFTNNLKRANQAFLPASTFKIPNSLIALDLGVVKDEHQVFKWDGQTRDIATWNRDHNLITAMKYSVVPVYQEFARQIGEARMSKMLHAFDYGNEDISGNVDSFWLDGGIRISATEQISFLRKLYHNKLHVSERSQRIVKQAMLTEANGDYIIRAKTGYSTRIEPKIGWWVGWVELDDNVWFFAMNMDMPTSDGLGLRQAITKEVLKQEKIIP
Method: as §1, with “min. These experiments confirmed that the described compounds are inhibitors with a broad-spectrum of activity towards various β-lactamases.” for “min.”

OXA-23 = OXA-23 (Acinetobacter baumannii, UniProt Q9L4P2); experiment: Inhibition of nitrocefin cleavage by purified OXA-23; format: biochemical; details: nitrocefin reporter substrate; 10 min preincubation at room temperature; read-out: Ki (OXA-23, NCF)
Chain of OXA-23 (Q9L4P2 18-273): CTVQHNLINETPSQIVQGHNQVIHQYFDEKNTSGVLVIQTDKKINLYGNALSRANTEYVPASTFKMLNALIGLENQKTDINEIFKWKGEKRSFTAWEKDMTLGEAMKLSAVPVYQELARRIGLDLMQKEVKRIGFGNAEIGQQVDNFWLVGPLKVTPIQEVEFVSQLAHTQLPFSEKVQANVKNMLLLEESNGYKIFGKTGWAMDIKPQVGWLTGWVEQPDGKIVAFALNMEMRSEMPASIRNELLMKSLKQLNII
Method: as §1, with “min. These experiments confirmed that the described compounds are inhibitors with a broad-spectrum of activity towards various β-lactamases.” for “min.”

Chain of IMP-1 (P52699 19-246, looked up, species assumed): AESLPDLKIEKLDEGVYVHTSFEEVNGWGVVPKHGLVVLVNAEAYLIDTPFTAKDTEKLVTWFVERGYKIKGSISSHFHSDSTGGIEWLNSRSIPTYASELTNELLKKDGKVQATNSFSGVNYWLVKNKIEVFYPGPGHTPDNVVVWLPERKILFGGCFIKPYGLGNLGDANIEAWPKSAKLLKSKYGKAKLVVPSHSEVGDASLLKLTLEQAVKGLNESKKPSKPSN

O=C(O)c1cccc2c1OB(O)CC21CC1 [Compound 14, 4,4-dihydroxyspiro[5-oxa-4-boranuidabicyclo[4.4.0]deca-1(6),7,9-triene-2,1′-cyclopropane]-7-carboxylic acid]
Ki (IMP-1): > 1000 nM | Ki (P99): < 100 nM | Ki (Pa-AmpC): < 100 nM | PAM1154/KPC-2 Biapenem MPC64 [1]: 1.25 | PAM1032/KPC-2 Biapenem MPC64 [2]: 40 | Ki (NDM-1): < 100 nM | Ki (CTX-M-14): < 100 nM | Ki (KPC-2): < 100 nM | Ki (VIM-1): > 1000 nM | Ki (OXA-48): < 100 nM | Ki (OXA-23): < 100 nM

COc1ccc2c(c1C(=O)O)OB(O)[C@@H]1COC[C@H]21 [Compound 23, (3aS,9bS)-4,4-dihydroxy-7-methoxy-1,3,3a,9b-tetrahydrofuro[3,4-c][1,2]benzoxaborinine-6-carboxylic acid]
Ki (IMP-1): > 1000 nM | Ki (P99): < 100 nM | Ki (Pa-AmpC): 100 to 1000 nM | PAM1154/KPC-2 Biapenem MPC64 [1]: 20 | PAM1032/KPC-2 Biapenem MPC64 [2]: 20 | Ki (NDM-1): < 100 nM | Ki (CTX-M-14): < 100 nM | Ki (KPC-2): < 100 nM | Ki (VIM-1): 100 to 1000 nM | Ki (OXA-48): < 100 nM | Ki (OXA-23): < 100 nM

O=C(O)c1c(F)c(F)cc2c1OB(O)C1CC21 (stereo not shown) [Compound 19, 5,6-difluoro-2,2-dihydroxy-1a,7b-dihydro-1H-cyclopropa[c][1,2]benzoxaborinine-4-carboxylic acid]
Ki (IMP-1): > 1000 nM | Ki (P99): < 100 nM | Ki (Pa-AmpC): < 100 nM | PAM1154/KPC-2 Biapenem MPC64 [1]: 1.25 | PAM1032/KPC-2 Biapenem MPC64 [2]: 5 | Ki (NDM-1): 100 to 1000 nM | Ki (CTX-M-14): < 100 nM | Ki (KPC-2): < 100 nM | Ki (VIM-1): < 100 nM | Ki (OXA-48): < 100 nM | Ki (OXA-23): < 100 nM

O=C(O)c1c(OCCF)ccc2c1OB(O)C1CC21 (stereo not shown) [Compound 17, 5-(2-fluoroethoxy)-2,2-dihydroxy-1a,7b-dihydro-1H-cyclopropa[c][1,2]benzoxaborinine-4-carboxylic acid]
Ki (IMP-1): < 100 nM | Ki (P99): < 100 nM | Ki (Pa-AmpC): < 100 nM | PAM1154/KPC-2 Biapenem MPC64 [1]: 5 | PAM1032/KPC-2 Biapenem MPC64 [2]: 20 | Ki (NDM-1): < 100 nM | Ki (CTX-M-14): < 100 nM | Ki (KPC-2): < 100 nM | Ki (VIM-1): < 100 nM | Ki (OXA-48): < 100 nM | Ki (OXA-23): < 100 nM

COc1ccc2c(c1C(=O)O)OB(O)[C@H]1C[C@@H]21 [Compound 2, (1aS,7bR)-2-hydroxy-5-methoxy-1a,7b-dihydro-1H-cyclopropa[c][1,2]benzoxaborinine-4-carboxylic acid]
Ki (IMP-1): > 1000 nM | Ki (P99): < 100 nM | Ki (Pa-AmpC): < 100 nM | PAM1154/KPC-2 Biapenem MPC64 [1]: 1.25 | PAM1032/KPC-2 Biapenem MPC64 [2]: 2.5 | Ki (NDM-1): 100 to 1000 nM | Ki (CTX-M-14): < 100 nM | Ki (KPC-2): < 100 nM | Ki (VIM-1): 100 to 1000 nM | Ki (OXA-48): < 100 nM | Ki (OXA-23): < 100 nM

O=C(O)c1cccc2c1OB(O)[C@H]1C[C@@H]21 [Compound 18, (1aS,7bR)-2,2-dihydroxy-1a,7b-dihydro-1H-cyclopropa[c][1,2]benzoxaborinine-4-carboxylic acid]
Ki (IMP-1): > 1000 nM | Ki (P99): 100 to 1000 nM | Ki (Pa-AmpC): 100 to 1000 nM | PAM1154/KPC-2 Biapenem MPC64 [1]: 0.3 | PAM1032/KPC-2 Biapenem MPC64 [2]: 5 | Ki (NDM-1): < 100 nM | Ki (CTX-M-14): < 100 nM | Ki (KPC-2): < 100 nM | Ki (VIM-1): 100 to 1000 nM | Ki (OXA-48): < 100 nM | Ki (OXA-23): 100 to 1000 nM

O=C(O)c1cccc2c1OB(O)[C@@H]1C[C@H]21 [Compound 16, (1aR,7bS)-2,2-dihydroxy-1a,7b-dihydro-1H-cyclopropa[c][1,2]benzoxaborinine-4-carboxylic acid]
Ki (IMP-1): < 100 nM | Ki (P99): < 100 nM | Ki (Pa-AmpC): < 100 nM | PAM1154/KPC-2 Biapenem MPC64 [1]: 0.3 | PAM1032/KPC-2 Biapenem MPC64 [2]: 1.25 | Ki (NDM-1): < 100 nM | Ki (CTX-M-14): < 100 nM | Ki (KPC-2): < 100 nM | Ki (VIM-1): < 100 nM | Ki (OXA-48): < 100 nM | Ki (OXA-23): < 100 nM

COc1ccc2c(c1C(=O)O)OB(O)[C@@H]1C[C@H]21 [Compound 3, (1aR,7bS)-2-hydroxy-5-methoxy-1a,7b-dihydro-1H-cyclopropa[c][1,2]benzoxaborinine-4-carboxylic acid]
Ki (IMP-1): < 100 nM | Ki (P99): < 100 nM | Ki (Pa-AmpC): < 100 nM | PAM1154/KPC-2 Biapenem MPC64 [1]: 2.5 | PAM1032/KPC-2 Biapenem MPC64 [2]: 5 | Ki (NDM-1): < 100 nM | Ki (CTX-M-14): < 100 nM | Ki (KPC-2): < 100 nM | Ki (VIM-1): < 100 nM | Ki (OXA-48): < 100 nM | Ki (OXA-23): < 100 nM

COc1ccc2c(c1C(=O)O)OB(O)C1C2C1(F)F (stereo not shown) [Compound 5, 1,1-Difluoro-2-hydroxy-5-methoxy-1a,7b-dihydrocyclopropa[c][1,2]benzoxaborinine-4-carboxylic acid]
Ki (IMP-1): > 1000 nM | Ki (P99): 100 to 1000 nM | Ki (Pa-AmpC): > 1000 nM | PAM1154/KPC-2 Biapenem MPC64 [1]: 10 | PAM1032/KPC-2 Biapenem MPC64 [2]: 20 | Ki (NDM-1): 100 to 1000 nM | Ki (CTX-M-14): < 100 nM | Ki (KPC-2): < 100 nM | Ki (VIM-1): > 1000 nM | Ki (OXA-48): < 100 nM | Ki (OXA-23): < 100 nM

COc1ccc2c(c1C(=O)O)OB(O)C1CC21 (stereo not shown) [Compound 1, 2-Hydroxy-5-methoxy-1a,7b-dihydro-1H-cyclopropa[c][1,2]benzoxaborinine-4-carboxylic acid]
Ki (IMP-1): < 100 nM | Ki (P99): < 100 nM | Ki (Pa-AmpC): < 100 nM | PAM1154/KPC-2 Biapenem MPC64 [1]: 1.25 | PAM1032/KPC-2 Biapenem MPC64 [2]: 2.5 | Ki (NDM-1): < 100 nM | Ki (CTX-M-14): < 100 nM | Ki (KPC-2): < 100 nM | Ki (VIM-1): < 100 nM | Ki (OXA-48): < 100 nM | Ki (OXA-23): < 100 nM

COc1ccc2c(c1C(=O)O)OB(O)C1(CO)CC21 (stereo not shown) [Compound 22, 2,2-dihydroxy-1a-(hydroxymethyl)-5-methoxy-1,7b-dihydrocyclopropa[c][1,2]benzoxaborinine-4-carboxylic acid]
Ki (IMP-1): < 100 nM | Ki (P99): < 100 nM | Ki (Pa-AmpC): < 100 nM | PAM1154/KPC-2 Biapenem MPC64 [1]: 10 | PAM1032/KPC-2 Biapenem MPC64 [2]: 20 | Ki (NDM-1): < 100 nM | Ki (CTX-M-14): < 100 nM | Ki (KPC-2): < 100 nM | Ki (VIM-1): < 100 nM | Ki (OXA-48): < 100 nM | Ki (OXA-23): > 1000 nM

— patent publication US11999759B2, “Boronic acid derivatives and therapeutic uses thereof” (Qpex Biopharma, Inc., priority 2016, dated 2024)
